Literature values in US20150157647A1, “METHODS AND CO[…] TO ACUTE RESPIRATORY DISTRESS SYNDROME” (priority 2013, published 2015).

How the values were obtained:
[1] = system: endothelial monolayers obtained from rat lung; settings: interferes with function of adherence proteins
[2] = system: animal models of preeclampsia
[3] = system: rodent brain contusion model; settings: given 1 hour after the insult

Row | Compound | In vitro vascular action | Effect on vascular permeability [1] | Effect on preeclampsia [2] | Effect on tissue injury [3]
1 | C[C@]12CC[C@H](O)C[C@@]1(O)CC[C@@H]1[C@@H]2CC[C@]2(C)[C@@H](c3ccc(=O)oc3)C[C@H]3O[C@]132 [MBG, marinobufagenin] | vasoconstrictor | causes vascular “leak” | – | –
2 | C[C@]12CC[C@H](O)C[C@H]1CC[C@@H]1[C@@H]2CC[C@]2(C)[C@@H](c3ccc(=O)oc3)C[C@H]3O[C@]132 [RBG, epoxy-3β-hydroxy-5β-bufa-20,22-dienolide] | – | – | prevents preeclampsia | amelioration of tissue injury
